Experimental data taken from ChEMBL document CHEMBL1201862, “PubChem BioAssay data set” (2004).
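Compound exposure: 48 hours, 5 concentrations, 96-well plates. GI50 marks 50% less growth.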 Active and inactive are the calls of the source. Rule as the data show it: active = GI50 up to about 1.1 µM and inactive = higher.

Key:
Assay in all cases: NCI tumour cell line growth inhibition, 48 h
[1] = test system: 786-0
[2] = test system: ACHN
[3] = test system: CCRF-CEM
[4] = test system: COLO 205
[5] = test system: EKVX
[6] = test system: HCC 2998
[7] = test system: HL-60
[8] = test system: HOP-62
[9] = test system: HT-29
[10] = test system: MDA-MB-435
[11] = test system: OVCAR-5
[12] = test system: OVCAR-8
[13] = test system: SF-295
[14] = test system: SF-539
[15] = test system: SK-MEL-2
[16] = test system: SN12C
[17] = test system: SNB-19
[18] = test system: SR
[19] = test system: NCI/ADR-RES

Measured: GI50

O=C1CCc2cc(Br)ccc2O1
inactive: [1] 29.2 µM | [2] 49.1 µM | [3] > 100 µM | [4] > 100 µM | [5] 3.81 µM | [6] > 100 µM | [7] > 100 µM | [8] 22.4 µM | [9] > 100 µM | [10] > 100 µM | [11] > 100 µM | [12] > 100 µM | [13] 34 µM | [14] 32.9 µM | [15] > 100 µM | [16] 92.9 µM | [17] 25 µM | [18] 83 µM

CCN(CC)c1ccc(/N=C2/C=CC(=C(C#N)C#N)c3ccccc32)c(C)c1
inactive: [1] 2.22 µM | [2] 2.59 µM | [3] 1.18 µM | [4] 2.64 µM | [5] 3.21 µM | [7] 1.26 µM | [8] 2.2 µM | [9] 3.24 µM | [12] 2.23 µM | [13] 2.28 µM | [15] 2.08 µM | [16] 2.53 µM | [17] 3.78 µM

O=[N+]([O-])c1ccc2nc3c(nc2c1)-c1c2ccccc2cc2cccc-3c12
inactive: [1] 7.62 µM | [2] 2.74 µM | [3] 6.12 µM | [4] > 100 µM | [5] 26.4 µM | [6] 33.3 µM | [7] 20.5 µM | [8] 18.6 µM | [9] 5.31 µM | [10] 27.8 µM | [19] 3.97 µM | [11] 51.8 µM | [12] 7.55 µM | [13] 19.6 µM | [14] 15 µM | [15] 27.2 µM | [16] 10.7 µM | [17] 11.7 µM

CCOC(=O)C(C(=O)COC(C)(C)C)[C@@H]1C=C[C@H](OC(C)=O)C1 (stereo partly drawn)
inactive: [1] > 100 µM | [2] > 100 µM | [3] 73.8 µM | [4] > 100 µM | [5] > 100 µM | [6] > 100 µM | [8] > 100 µM | [9] > 100 µM | [10] > 100 µM | [19] > 100 µM | [11] > 100 µM | [13] > 100 µM | [14] > 100 µM | [15] > 100 µM | [16] > 100 µM | [17] > 100 µM

COc1cc(OC)c2c(=O)c(OC)c(-c3ccc4c(c3)OCO4)oc2c1OC
inactive: [1] > 100 µM | [2] 83.8 µM | [3] 28.5 µM | [4] 53.6 µM | [5] 47 µM | [6] > 100 µM | [7] 6.82 µM | [8] 91.8 µM | [9] > 100 µM | [10] > 100 µM | [19] > 100 µM | [11] > 100 µM | [12] > 100 µM | [13] 91.4 µM | [14] > 100 µM | [15] > 100 µM | [16] > 100 µM | [17] > 100 µM

COc1ccc2c(c1)[n+]([O-])c(-c1ccc(Br)cc1)c(N)[n+]2[O-]
inactive: [1] 78 µM | [2] 47.8 µM | [3] 50.4 µM | [4] 18.9 µM | [5] 51.1 µM | [7] 21.1 µM | [8] 88.3 µM | [9] 44.4 µM | [11] 60 µM | [12] 37.2 µM | [13] 96.2 µM | [14] 36.1 µM | [15] 32.4 µM | [16] 47 µM | [17] > 100 µM | [18] 36.6 µM

O=C(c1cc2ccccc2[nH]1)N1C2CCC1CN(CCOC(c1ccc(F)cc1)c1ccc(F)cc1)CC2 (stereo not drawn)
inactive: [1] > 100 µM | [2] 95.1 µM | [3] 6.01 µM | [4] 5 µM | [5] 8.55 µM | [6] > 100 µM | [7] 6.85 µM | [8] > 100 µM | [9] 23.8 µM | [10] > 100 µM | [19] > 100 µM | [11] > 100 µM | [12] > 100 µM | [13] 9.89 µM | [14] 19.1 µM | [15] 81.8 µM | [16] 18.2 µM | [17] > 100 µM

COC(=O)c1cc(C)ccc1CC(Cc1ccccc1C)C(=O)OC (stereo not drawn)
inactive: [1] 89.5 µM | [2] 75.2 µM | [3] 14 µM | [4] 46.2 µM | [5] 18.7 µM | [6] 34.9 µM | [7] 13.2 µM | [8] > 100 µM | [9] 22 µM | [10] 18.1 µM | [19] 32.6 µM | [12] 45.5 µM | [13] 38.2 µM | [14] > 100 µM | [16] 44.9 µM | [17] > 100 µM
